Test results reported in paper PMC5218480 (PLoS ONE, 2017).

Test system: MV-4-11 cells
Assay: Gene expression microarray analysis (Affymetrix PrimeView) and GSEA
Assay type: cell-based, human
Design: RFU PODN (11730768_x_at) / Fold change /veh PODN (11730768_x_at) / RFU LINC00158 (11744669_a_at) / Fold change /veh LINC00158 (11744669_a_at) / RFU DUSP10 (11751237_a_at) / Fold change /veh DUSP10 (11751237_a_at) / RFU ID3 (11757404_x_at) / Fold change /veh ID3 (11757404_x_at) / RFU PLEKHG5 (11737974_s_at) / Fold change /veh PLEKHG5 (11737974_s_at) / RFU LRRC4B (11730491_at) / Fold change /veh LRRC4B (11730491_at) / RFU GIMAP4 (11747438_a_at) / Fold change /veh GIMAP4 (11747438_a_at) / RFU KRT8 (11758183_x_at) / Fold change /veh KRT8 (11758183_x_at) / RFU CNN1 (11734310_a_at) / Fold change /veh CNN1 (11734310_a_at) / RFU VPS37D (11726825_at) / Fold change /veh VPS37D (11726825_at) / RFU C10orf10 (11716522_x_at) / Fold change /veh C10orf10 (11716522_x_at) / RFU KIR2DL2 /// KIR2DL4 /// KIR2DL5A /// KIR2DL5B /// KIR2DS1 /// KIR2DS2 /// KIR2DS3 /// KIR2DS4 /// KIR3DL3 /// KIR3DL3 /// KIR3DS1 (11738374_at) / Fold change /veh KIR2DL2 /// KIR2DL4 /// KIR2DL5A /// KIR2DL5B /// KIR2DS1 /// KIR2DS2 /// KIR2DS3 /// KIR2DS4 /// KIR3DL3 /// KIR3DL3 /// KIR3DS1 (11738374_at) / RFU C1QL1 (11718748_at) / Fold change /veh C1QL1 (11718748_at) / RFU TMPRSS4 (11747572_a_at) / Fold change /veh TMPRSS4 (11747572_a_at) / RFU HAMP (11756126_x_at) / Fold change /veh HAMP (11756126_x_at) / RFU RNFT2 (11725882_a_at) / Fold change /veh RNFT2 (11725882_a_at) / RFU NR4A2 (11747474_a_at) / Fold change /veh NR4A2 (11747474_a_at) / RFU ABCC12 (11746883_a_at) / Fold change /veh ABCC12 (11746883_a_at) / RFU TMEM136 (11760407_x_at) / Fold change /veh TMEM136 (11760407_x_at) / RFU CLDN22 /// WWC2 (11732394_at) / Fold change /veh CLDN22 /// WWC2 (11732394_at) / RFU HLA-DPB1 (11760878_x_at) / Fold change /veh HLA-DPB1 (11760878_x_at) / RFU SPINT1 (11716480_a_at) / Fold change /veh SPINT1 (11716480_a_at) / RFU GAP43 (11754022_s_at) / Fold change /veh GAP43 (11754022_s_at) / RFU A4GNT (11735810_at) / Fold change /veh A4GNT (11735810_at) / RFU PRB3 (11715151_x_at) / Fold change /veh PRB3 (11715151_x_at) / RFU TUBB4B (11761932_at) / Fold change /veh TUBB4B (11761932_at) / RFU CAPN14 (11732068_a_at) / Fold change /veh CAPN14 (11732068_a_at) / RFU TMCC2 (11721928_a_at) / Fold change /veh TMCC2 (11721928_a_at) / RFU IRGQ (11745062_a_at) / Fold change /veh IRGQ (11745062_a_at) / RFU FAM174B (11720279_a_at) / Fold change /veh FAM174B (11720279_a_at) / RFU TMPRSS4 (11748680_a_at) / Fold change /veh TMPRSS4 (11748680_a_at) / RFU FAM212B (11763350_a_at) / Fold change /veh FAM212B (11763350_a_at) / RFU PLEKHG5 (11743358_a_at) / Fold change /veh PLEKHG5 (11743358_a_at) / RFU ZSCAN30 (11745921_a_at) / Fold change /veh ZSCAN30 (11745921_a_at) / RFU CMKLR1 (11741424_a_at) / Fold change /veh CMKLR1 (11741424_a_at) / RFU LOC101060620 /// MAPK8IP1 (11723275_at) / Fold change /veh LOC101060620 /// MAPK8IP1 (11723275_at) / RFU SPTSSB (11747773_x_at) / Fold change /veh SPTSSB (11747773_x_at) / RFU PRSS12 (11739890_at) / Fold change /veh PRSS12 (11739890_at) / RFU BIN1 (11741810_x_at) / Fold change /veh BIN1 (11741810_x_at) / RFU WNT11 (11732464_a_at) / Fold change /veh WNT11 (11732464_a_at) / RFU C10orf10 (11716521_a_at) / Fold change /veh C10orf10 (11716521_a_at) / RFU C5orf56 (11738089_at) / Fold change /veh C5orf56 (11738089_at) / RFU CYB561 (11721691_x_at) / Fold change /veh CYB561 (11721691_x_at) / RFU ANKRD19P (11752326_a_at) / Fold change /veh ANKRD19P (11752326_a_at) / RFU OR2T12 /// OR2T33 /// OR2T8 (11738714_s_at) / Fold change /veh OR2T12 /// OR2T33 /// OR2T8 (11738714_s_at) / RFU VCAN (11748164_a_at) / Fold change /veh VCAN (11748164_a_at) / RFU JSRP1 (11732532_at) / Fold change /veh JSRP1 (11732532_at) / RFU KRTAP10-11 (11738290_x_at) / Fold change /veh KRTAP10-11 (11738290_x_at) / RFU MYO3A (11730013_a_at) / Fold change /veh MYO3A (11730013_a_at) / RFU EBF3 (11725865_a_at) / Fold change /veh EBF3 (11725865_a_at) / RFU CAMK2N1 (11719241_x_at) / Fold change /veh CAMK2N1 (11719241_x_at) / RFU C5orf56 (11738088_a_at) / Fold change /veh C5orf56 (11738088_a_at) / RFU OLFML3 (11715873_a_at) / Fold change /veh OLFML3 (11715873_a_at) / RFU LOC100653217 /// NTM (11731650_a_at) / Fold change /veh LOC100653217 /// NTM (11731650_a_at) / RFU MAPK11 (11762145_a_at) / Fold change /veh MAPK11 (11762145_a_at) / RFU FIZ1 (11724087_x_at) / Fold change /veh FIZ1 (11724087_x_at) / RFU OASL (11726364_x_at) / Fold change /veh OASL (11726364_x_at) / RFU SOX15 (11748057_x_at) / Fold change /veh SOX15 (11748057_x_at) / RFU CD79A (11719716_a_at) / Fold change /veh CD79A (11719716_a_at) / RFU HIST1H1D (11736915_at) / Fold change /veh HIST1H1D (11736915_at) / RFU CASKIN2 (11723855_a_at) / Fold change /veh CASKIN2 (11723855_a_at) / RFU LOC730098 (11760151_x_at) / Fold change /veh LOC730098 (11760151_x_at) / RFU OR4N2 (11742367_at) / Fold change /veh OR4N2 (11742367_at) / RFU PRRT2 (11749266_a_at) / Fold change /veh PRRT2 (11749266_a_at) / RFU SNX32 (11753110_a_at) / Fold change /veh SNX32 (11753110_a_at) / RFU CDHR5 (11726645_a_at) / Fold change /veh CDHR5 (11726645_a_at) / RFU RCAN1 (11760418_a_at) / Fold change /veh RCAN1 (11760418_a_at) / RFU FAM167A (11723789_a_at) / Fold change /veh FAM167A (11723789_a_at) / RFU FAM26E (11764081_at) / Fold change /veh FAM26E (11764081_at) / RFU ISYNA1 (11749810_s_at) / Fold change /veh ISYNA1 (11749810_s_at) / RFU ACY1 (11761880_at) / Fold change /veh ACY1 (11761880_at) / RFU 11764098_at / Fold change /veh 11764098_at / RFU SAMD14 (11745864_x_at) / Fold change /veh SAMD14 (11745864_x_at) / RFU NPB (11741838_a_at) / Fold change /veh NPB (11741838_a_at) / RFU TMPRSS6 (11731388_a_at) / Fold change /veh TMPRSS6 (11731388_a_at) / RFU KRTAP10-2 (11738614_at) / Fold change /veh KRTAP10-2 (11738614_at) / RFU ARHGAP8 /// PRR5-ARHGAP8 (11727945_x_at) / Fold change /veh ARHGAP8 /// PRR5-ARHGAP8 (11727945_x_at) / RFU KRTAP5-7 /// NADSYN1 (11734609_at) / Fold change /veh KRTAP5-7 /// NADSYN1 (11734609_at) / RFU RASL12 (11751679_a_at) / Fold change /veh RASL12 (11751679_a_at) / RFU CDKN2B (11736163_a_at) / Fold change /veh CDKN2B (11736163_a_at) / RFU PRF1 (11729649_at) / Fold change /veh PRF1 (11729649_at) / RFU, ZNF638 /// ZNF638-IT1 / Fold change vs veh, ZNF638 /// ZNF638-IT1 / RFU, PANK3 / Fold change vs veh, PANK3 / RFU, SH3YL1 / Fold change vs veh, SH3YL1 / RFU, ZEB2 / Fold change vs veh, ZEB2 / RFU, NRIP1 / Fold change vs veh, NRIP1 / RFU, PTTG1IP / Fold change vs veh, PTTG1IP / RFU, CAPN2 / Fold change vs veh, CAPN2 / RFU, MED14 / Fold change vs veh, MED14 / RFU, SNORA58 / Fold change vs veh, SNORA58 / RFU, C1orf63 / Fold change vs veh, C1orf63 / RFU, LRRFIP1 / Fold change vs veh, LRRFIP1 / RFU, NDUFAF7 / Fold change vs veh, NDUFAF7 / RFU, SLC12A2 / Fold change vs veh, SLC12A2 / RFU, IBTK / Fold change vs veh, IBTK / RFU, ESF1 / Fold change vs veh, ESF1 / Fold change vs veh, TMEM50B / RFU, TAOK1 / Fold change vs veh, TAOK1 / RFU, ACBD3 / Fold change vs veh, ACBD3 / RFU, TMA16 / Fold change vs veh, TMA16 / RFU, RWDD3 / Fold change vs veh, RWDD3 / RFU, BCAT1 / Fold change vs veh, BCAT1 / RFU, EDEM3 / Fold change vs veh, EDEM3 / RFU, TMEM33 / Fold change vs veh, TMEM33 / RFU, WDR75 / Fold change vs veh, WDR75 / RFU, AHCTF1 / Fold change vs veh, AHCTF1 / RFU, TFRC / Fold change vs veh, TFRC / RFU, ZDHHC17 / Fold change vs veh, ZDHHC17 / RFU, NOM1 / Fold change vs veh, NOM1 / RFU, ARL8B / Fold change vs veh, ARL8B / RFU, ZBTB11 / Fold change vs veh, ZBTB11 / RFU, TAMM41 / Fold change vs veh, TAMM41 / RFU, KIAA1704 /// LOC100996395 / Fold change vs veh, KIAA1704 /// LOC100996395 / RFU, ING1 / Fold change vs veh, ING1 / RFU, TRMT61B / Fold change vs veh, TRMT61B / RFU, FUBP3 / Fold change vs veh, FUBP3 / RFU, TP53 / Fold change vs veh, TP53 / RFU, TNKS2 / Fold change vs veh, TNKS2 / RFU, ZFP14 / Fold change vs veh, ZFP14 / RFU, ACTR2 / Fold change vs veh, ACTR2 / RFU, PPP3R1 / Fold change vs veh, PPP3R1 / RFU, PIK3R1 / Fold change vs veh, PIK3R1 / RFU, HNRNPA1 / Fold change vs veh, HNRNPA1 / RFU, RNF170 / Fold change vs veh, RNF170 / RFU, ZNF28 / Fold change vs veh, ZNF28 / RFU, RNGTT / Fold change vs veh, RNGTT / RFU, OGT / Fold change vs veh, OGT / RFU, BRD1 / Fold change vs veh, BRD1 / RFU, MARS / Fold change vs veh, MARS / RFU, ZNF655 / Fold change vs veh, ZNF655 / RFU, FAHD1 / Fold change vs veh, FAHD1 / RFU, BDP1 / Fold change vs veh, BDP1 / RFU, LRRCC1 / Fold change vs veh, LRRCC1 / RFU, ARID1A / Fold change vs veh, ARID1A / RFU, ZNF146 / Fold change vs veh, ZNF146 / RFU, ZNF330 / Fold change vs veh, ZNF330 / RFU, GPN3 / Fold change vs veh, GPN3 / RFU, C9orf123 / Fold change vs veh, C9orf123 / RFU, N4BP2L2 / Fold change vs veh, N4BP2L2 / RFU, ARFIP1 / Fold change vs veh, ARFIP1 / RFU, FAM179B / Fold change vs veh, FAM179B / RFU, BCL10 / Fold change vs veh, BCL10 / RFU, UHRF1BP1L / Fold change vs veh, UHRF1BP1L / RFU, BET1 / Fold change vs veh, BET1 / RFU, CNOT2 / Fold change vs veh, CNOT2 / RFU, ZNF268 / Fold change vs veh, ZNF268 / Fold change vs veh, ZNF507 / RFU, DGCR2 / Fold change vs veh, DGCR2 / RFU, WDSUB1 / Fold change vs veh, WDSUB1 / Fold change vs veh, HSP90B1 /// MIR3652 / RFU, ADSS / Fold change vs veh, ADSS / RFU, GK / Fold change vs veh, GK / RFU, ZNF148 / Fold change vs veh, ZNF148 / RFU, TAF9 / Fold change vs veh, TAF9 / RFU, SLC1A5 / Fold change vs veh, SLC1A5 / RFU, SLMO2 / Fold change vs veh, SLMO2 / RFU, ABCC4 / Fold change vs veh, ABCC4 / RFU, LOC101060439 /// RAP1B / Fold change vs veh, LOC101060439 /// RAP1B / RFU, RFX7 / Fold change vs veh, RFX7 / RFU, GTPBP10 / Fold change vs veh, GTPBP10 / RFU, CNEP1R1 / Fold change vs veh, CNEP1R1 / RFU, BIVM-ERCC5 /// ERCC5 / Fold change vs veh, BIVM-ERCC5 /// ERCC5 / RFU, ILF3 / Fold change vs veh, ILF3 / RFU 11762660_at / Fold change /veh 11762660_at / RFU VCAN (11757783_s_at) / Fold change /veh VCAN (11757783_s_at) / RFU DDX43 (11728927_at) / Fold change /veh DDX43 (11728927_at) / RFU KRT8 (11758188_x_at) / Fold change /veh KRT8 (11758188_x_at) / RFU NKD1 (11759106_at) / Fold change /veh NKD1 (11759106_at) / RFU SRD5A1 (11742802_a_at) / Fold change /veh SRD5A1 (11742802_a_at) / RFU TPSAB1 /// TPSB2 (11721975_s_at) / Fold change /veh TPSAB1 /// TPSB2 (11721975_s_at) / RFU GSTM3 (11746129_a_at) / Fold change /veh GSTM3 (11746129_a_at) / RFU IL23R (11737362_x_at) / Fold change /veh IL23R (11737362_x_at) / RFU TMEM51 (11727254_a_at) / Fold change /veh TMEM51 (11727254_a_at) / RFU PIWIL2 (11732686_x_at) / Fold change /veh PIWIL2 (11732686_x_at) / RFU ORM1 (11744905_x_at) / Fold change /veh ORM1 (11744905_x_at) / RFU CCDC152 (11743942_at) / Fold change /veh CCDC152 (11743942_at) / RFU ECM1 (11717891_a_at) / Fold change /veh ECM1 (11717891_a_at) / RFU IL23R (11748794_a_at) / Fold change /veh IL23R (11748794_a_at) / RFU TNFAIP8L3 (11732012_x_at) / Fold change /veh TNFAIP8L3 (11732012_x_at) / RFU MBOAT4 (11741988_at) / Fold change /veh MBOAT4 (11741988_at) / RFU 11764193_at / Fold change /veh 11764193_at / RFU TMEM53 (11763286_at) / Fold change /veh TMEM53 (11763286_at) / RFU MAGEB2 (11727129_at) / Fold change /veh MAGEB2 (11727129_at) / RFU TMEM200A (11744735_a_at) / Fold change /veh TMEM200A (11744735_a_at) / RFU CCDC152 (11751479_a_at) / Fold change /veh CCDC152 (11751479_a_at) / RFU FAM211A (11726209_a_at) / Fold change /veh FAM211A (11726209_a_at) / RFU RGS16 (11746705_a_at) / Fold change /veh RGS16 (11746705_a_at) / RFU VCAN (11755009_s_at) / Fold change /veh VCAN (11755009_s_at) / RFU RHOB (11743442_s_at) / Fold change /veh RHOB (11743442_s_at) / RFU RGS16 (11720943_a_at) / Fold change /veh RGS16 (11720943_a_at) / RFU RGS16 (11720944_at) / Fold change /veh RGS16 (11720944_at) / RFU, VPS4B / Fold change vs veh, VPS4B / RFU, CREB1 / Fold change vs veh, CREB1 / RFU, DNAJC13 / Fold change vs veh, DNAJC13 / RFU, GNAQ / Fold change vs veh, GNAQ / RFU, CDK5R1 / Fold change vs veh, CDK5R1 / RFU, ZRANB3 / Fold change vs veh, ZRANB3 / RFU, CUL4A / Fold change vs veh, CUL4A / RFU, CCNY / Fold change vs veh, CCNY / RFU, UFL1 / Fold change vs veh, UFL1 / RFU, COG3 / Fold change vs veh, COG3 / RFU, DIAPH2 / Fold change vs veh, DIAPH2 / RFU, SKA2 / Fold change vs veh, SKA2 / RFU, AFF3 / Fold change vs veh, AFF3 / RFU, LMF1 / Fold change vs veh, LMF1 / RFU, IPO11 / Fold change vs veh, IPO11 / RFU, DFFB / Fold change vs veh, DFFB / RFU, FOXP1 / Fold change vs veh, FOXP1 / RFU, CARD8 / Fold change vs veh, CARD8 / RFU, STRN3 / Fold change vs veh, STRN3 / RFU, ADK / Fold change vs veh, ADK / RFU, RASSF2 / Fold change vs veh, RASSF2 / RFU, WIPF1 / Fold change vs veh, WIPF1 / RFU, LARP1B / Fold change vs veh, LARP1B / RFU, RASA1 / Fold change vs veh, RASA1 / RFU, RB1 / Fold change vs veh, RB1 / RFU, PPFIA1 / Fold change vs veh, PPFIA1 / RFU, MAT2A / Fold change vs veh, MAT2A / RFU, CCT5 / Fold change vs veh, CCT5 / RFU, WDR92 / Fold change vs veh, WDR92 / RFU, CUX1 / Fold change vs veh, CUX1 / RFU, TTC7A / Fold change vs veh, TTC7A / RFU, TMEM135 / Fold change vs veh, TMEM135 / RFU, DEPTOR / Fold change vs veh, DEPTOR / RFU, CPM / Fold change vs veh, CPM / RFU, DNAJB6 / Fold change vs veh, DNAJB6 / RFU, CACNA2D3 / Fold change vs veh, CACNA2D3 / RFU, DTX4 / Fold change vs veh, DTX4 / RFU, TFCP2 / Fold change vs veh, TFCP2 / RFU, GMCL1 /// GMCL1P1 / Fold change vs veh, GMCL1 /// GMCL1P1 / RFU, AEBP2 / Fold change vs veh, AEBP2 / RFU, SNHG1 /// SNORD22 /// SNORD25 /// SNORD26 /// SNORD27 /// SNORD28 /// SNORD29 /// SNORD31 / Fold change vs veh, SNHG1 /// SNORD22 /// SNORD25 /// SNORD26 /// SNORD27 /// SNORD28 /// SNORD29 /// SNORD31 / Fold change (Aza/veh), C12orf56 (ProbeSet 11735607_a_at) / Fold change (ACY-1035/veh), C12orf56 (ProbeSet 11735607_a_at) / Fold change (Aza/veh), FGFR1OP (ProbeSet 11751329_s_at) / Fold change (ACY-1035/veh), FGFR1OP (ProbeSet 11751329_s_at) / Fold change (Aza/veh), VPS36 (ProbeSet 11739960_a_at) / Fold change (ACY-1035/veh), VPS36 (ProbeSet 11739960_a_at) / RFU SYPL1 (11715823_x_at) / Fold change /veh SYPL1 (11715823_x_at) / RFU IGFBP7 (11715501_s_at) / Fold change /veh IGFBP7 (11715501_s_at) / RFU REEP3 (11722064_at) / Fold change /veh REEP3 (11722064_at) / RFU IGLL1 (11728026_x_at) / Fold change /veh IGLL1 (11728026_x_at): dose or concentration left out as unconfirmed
Conditions: MV-4-11 cells, 48 hours

Nc1ncn([C@@H]2O[C@H](CO)[C@@H](O)[C@H]2O)c(=O)n1 [azacitidine]
Fold change /veh SPTSSB (11747773_x_at): 1.09
